Patent publication US9040233B2 (priority 2007, dated 2015)
Read-outs that look alike come from different tables or passages of the source.

Tested on: CD8+ T cells
Assay type: cell-based, human

With `CC[C@H](C)[C@H](NC(=O)[C@@H](N)CC(N)=O)C(=O)N[C@@H](CCCNC(=N)N)C(=O)N[C@@H](CCC(N)=O)C(=O)N[C@@H](C)C(=O)NCC(=O)N[C@H](C(=O)N[C@@H](CCC(N)=O)C(=O)N[C@@H](Cc1ccc(O)cc1)C(=O)O)C(C)C` as the compound, how does the “# SFU” value (donor D481 (active TB)) read?
The value was 1715 SFU/250,000 CD8+ T cells.

`CSCC[C@H](NC(=O)[C@@H](N)CCC(=O)O)C(=O)N[C@@H](CCCCN)C(=O)N[C@H](C(=O)N[C@@H](CC(=O)O)C(=O)N[C@@H](C)C(=O)N[C@@H](C)C(=O)N[C@H](C(=O)N[C@@H](CC(C)C)C(=O)O)[C@@H](C)O)[C@@H](C)O` was tested. Which “# SFU” value (donor D480 (active TB)) did it give?
Its value is 387 SFU/250,000 CD8+ T cells.

RADEEQQQAL was tested. Which “# SFU” value did it give?
Its value is 120 SFU/250,000 CD8+ T cells.

How did the “# SFU” value turn out when ELPQWLSANR was run?
Its value is <10 SFU/250,000 CD8+ T cells.

For `CC[C@H](C)[C@H](NC(=O)[C@@H](NC(=O)[C@H](C)N)C(C)C)C(=O)N[C@@H](CC(N)=O)C(=O)N[C@H](C(=O)N[C@H](C(=O)N[C@@H](CS)C(=O)N[C@@H](CC(N)=O)C(=O)N[C@@H](Cc1ccc(O)cc1)C(=O)NCC(=O)N[C@@H](CCC(N)=O)C(=O)O)[C@@H](C)O)[C@@H](C)O`, which “# SFU” value (donor D454 (LTBI)) is on record?
Its value is 24 SFU/250,000 CD8+ T cells.

Which “# SFU” value (donor D432 (active TB)) does the source give for `CC(C)C[C@H](NC(=O)[C@H](Cc1ccc(O)cc1)NC(=O)[C@H](CO)NC(=O)[C@H](CCC(N)=O)NC(=O)[C@H](C)NC(=O)[C@@H](NC(=O)[C@@H]1CCCN1C(=O)[C@H](CO)NC(=O)[C@H](C)N)C(C)C)C(=O)O` here?
The value was 210 SFU/250,000 CD8+ T cells.

Which “# SFU” value (donor D454 (LTBI)) does the source give for `CC(C)[C@H](NC(=O)[C@H](Cc1ccccc1)NC(=O)[C@H](CCCNC(=N)N)NC(=O)[C@H](C)NC(=O)[C@H](Cc1c[nH]cn1)NC(=O)[C@H](C)NC(=O)[C@H](C)N)C(=O)N[C@@H](C)C(=O)N[C@@H](C)C(=O)O` here?
The value was 88 SFU/250,000 CD8+ T cells.

For `CSCC[C@H](NC(=O)[C@H](CCC(=O)O)NC(=O)[C@H](C)N)C(=O)N[C@@H](CCCCN)C(=O)N[C@H](C(=O)N[C@@H](CC(=O)O)C(=O)N[C@@H](C)C(=O)N[C@@H](C)C(=O)O)[C@@H](C)O`, which “# SFU” value (donor D466 (active TB)) is on record?
The value was 2458 SFU/250,000 CD8+ T cells.

How did the “#SFU/250,000 CD8+ T-cells” value turn out when QTVEDEARRMW was run?
Its value is 84.

`CC(C)[C@H](NC(=O)[C@H](C)NC(=O)[C@H](C)NC(=O)[C@H](CCC(N)=O)NC(=O)[C@H](C)NC(=O)[C@H](C)NC(=O)[C@@H](N)[C@@H](C)O)C(=O)N[C@H](C(=O)N[C@@H](CCCNC(=N)N)C(=O)N[C@@H](Cc1ccccc1)C(=O)O)C(C)C` was tested. Which “# SFU” value did it give?
Its value is 258 SFU/250,000 CD8+ T cells.

For `CC[C@H](C)[C@H](NC(=O)[C@H](Cc1c[nH]cn1)NC(=O)[C@H](C)NC(=O)[C@H](CC(=O)O)NC(=O)[C@H](CC(C)C)NC(=O)[C@@H](N)CC(C)C)C(=O)N1CCC[C@H]1C(=O)N[C@@H](CCC(N)=O)C(=O)N[C@@H](CC(C)C)C(=O)O`, which “# SFU” value (donor D504 (LTBI)) is on record?
The value was <10 SFU/250,000 CD8+ T cells.

Which “# SFU” value does the source give for `CSCC[C@H](NC(=O)[C@H](CCC(=O)O)NC(=O)[C@H](C)N)C(=O)N[C@@H](CCCCN)C(=O)N[C@H](C(=O)N[C@@H](CC(=O)O)C(=O)N[C@@H](C)C(=O)N[C@@H](C)C(=O)N[C@H](C(=O)N[C@@H](CC(C)C)C(=O)N[C@@H](C)C(=O)O)[C@@H](C)O)[C@@H](C)O` here?
Its value is 1993 SFU/250,000 CD8+ T cells.
